Experimental data taken from ChEMBL document CHEMBL5247626, “In vitro and in vivo biological evaluation of newly synthesized multi-target 20(R)-panaxadiol derivatives for treating Alzheimer's disease” (Eur J Med Chem, 2022).
Activity calls are given as the source filed them. The calls are words filed in the database; no cut-off is given here.

Experiments:
Mus musculus [1] = test: Antialzheimer activity against amyloid beta (25 to 35)-induced cognitive deficit ICR mouse model assessed as increase in preferential index at 25 mg/kg,po observed after 24 hrs of administration by novel object recognition test; assay type: functional, organism-based
[2] = Toxicity in ICR mouse assessed as pathological changes in liver at 12.5 to 50 mg/kg,po administrated for 20 days by hematoxylin and eosin staining based microscopic analysis; assay type: organism-based; conditions: in vivo, 480 h, dose 12.5-50 mg/kg, time 20 day
Mus musculus [3] = test: Antialzheimer activity against amyloid beta (25 to 35)-induced spatial memory deficit ICR mouse model assessed as increase in distance travelled in target quadrant at 50 mg/kg,po observed at 16 to 20 days of administration by morris water maze test; assay type: functional, organism-based; conditions: time 16-20 day
[4] = Tmax in Sprague-Dawley rat at 60 mg/kg,po measured at 0.25 to 24 hrs post administration by LC-MS/MS analysis; assay type: ADME, organism-based; conditions: in vivo, time 0.25-24 hrs
Mus musculus [5] = test: Antialzheimer activity against amyloid beta (25 to 35)-induced brain injury ICR mouse model assessed as increase in NeuN expression level in cerebral cortex at 50 mg/kg,po administrated for 21 days by immunohistochemistry analysis; assay type: functional, organism-based; conditions: time 21.0 day
N2a = test: Cytotoxicity against mouse Neuro2a cells assessed as effect on survival at < 60 uM incubated for 24 hrs by MTT assay; assay type: toxicity, cell-based
HepG2 = test: Cytotoxicity against human HepG2 cells assessed as decrease in cell viability at 120 uM incubated for 24 hrs by MTT assay; assay type: toxicity, cell-based; conditions: hepg2, 24 h
Mus musculus [6] = test: Antialzheimer activity against amyloid beta (25 to 35)-induced spatial memory deficit ICR mouse model assessed as increase in exploration time spent at 50 mg/kg,po observed at 16 to 20 days of administration by morris water maze test; assay type: functional, organism-based; conditions: time 16-20 day
PC-12 [7] = test: Neuroprotective activity against amyloid beta (25 to 35)-induced rat PC12 cells assessed as decrease in NF-kappaB expression level at 7.5 to 30 uM preincubated for 30 mins followed by amyloid beta (25 to 35) addition and measured after 24 hrs by western blot assay; assay type: functional, cell-based; conditions: dose 7.5-30 µM, time 24.5 hrs
HUVEC [8] = test: Cytotoxicity against human HUVEC cells assessed as effect on survival at < 60 uM incubated for 24 hrs by MTT assay; assay type: toxicity, cell-based
Mus musculus [9] = test: Antialzheimer activity against amyloid beta (25 to 35)-induced brain injury ICR mouse model assessed as attenuation of pathological change in hippocampal CAl region at 12.5 to 50 mg/kg,po administrated for 21 days by hematoxylin and eosin staining based microscopic analysis; assay type: functional, organism-based; conditions: dose 12.5-50 mg/kg, time 21.0 day
[10] = Toxicity in ICR mouse assessed as pathological changes in heart at 12.5 to 50 mg/kg,po administrated for 20 days by hematoxylin and eosin staining based microscopic analysis; assay type: organism-based; conditions: in vivo, 480 h, dose 12.5-50 mg/kg, time 20 day
PC-12 [11] = test: Neuroprotective activity against amyloid beta (25 to 35)-induced rat PC12 cells assessed as decrease in total tau protein expression level at 7.5 to 30 uM preincubated for 30 mins followed by amyloid beta (25 to 35) addition and measured after 24 hrs by western blot assay; assay type: functional, cell-based; conditions: dose 7.5-30 µM, time 24.5 hrs
PC-12 [12] = test: Neuroprotective activity against amyloid beta (25 to 35)-induced rat PC12 cells assessed as decrease in JNK expression level at 7.5 to 30 uM preincubated for 30 mins followed by amyloid beta (25 to 35) addition and measured after 24 hrs by western blot assay; assay type: functional, cell-based; conditions: dose 7.5-30 µM, time 24.5 hrs
PC-12 [13] = test: Neuroprotective activity against amyloid beta (25 to 35)-induced rat PC12 cells assessed as decrease in JNK phosphorylation level at 7.5 to 30 uM preincubated for 30 mins followed by amyloid beta (25 to 35) addition and measured after 24 hrs by western blot assay; assay type: functional, cell-based; conditions: dose 7.5-30 µM, time 24.5 hrs
[14] = MRT (0 to t) in Sprague-Dawley rat at 60 mg/kg,po measured at 0.25 to 24 hrs post administration by LC-MS/MS analysis; assay type: ADME, organism-based; conditions: in vivo, time 0.25-24 hrs
PC-12 [15] = test: Neuroprotective activity against amyloid beta (25 to 35)-induced rat PC12 cells assessed as decrease in COX-2 expression level at 7.5 to 30 uM preincubated for 30 mins followed by amyloid beta (25 to 35) addition and measured after 24 hrs by western blot assay; assay type: functional, cell-based; conditions: dose 7.5-30 µM, time 24.5 hrs
[16] = AUC (0-infinity) in Sprague-Dawley rat at 10 mg/kg,iv measured at 0.083 to 24 hrs post administration by LC-MS/MS analysis; assay type: ADME, organism-based; parameters: dose 10 mg/kg, time 0.083-24 hrs, route iv; conditions: in vivo
PC-12 [17] = test: Neuroprotective activity against amyloid beta (25 to 35)-induced rat PC12 cells assessed as decrease in amyloid beta level at 3.75 to 30 uM incubated for 30 mins followed by amyloid beta (25 to 35) addition and measured after 24 hrs by ELISA; assay type: functional, cell-based; conditions: dose 3.75-30 µM, time 24.5 hrs
PC-12 [18] = test: Neuroprotective activity against amyloid beta (25 to 35)-induced rat PC12 cells assessed as decrease in p38 phosphorylation level at 7.5 to 30 uM preincubated for 30 mins followed by amyloid beta (25 to 35) addition and measured after 24 hrs by western blot assay; assay type: functional, cell-based; conditions: dose 7.5-30 µM, time 24.5 hrs
Mus musculus [19] = test: Antialzheimer activity against amyloid beta (25 to 35)-induced cognitive deficit ICR mouse model assessed as increase in discrimination index at 25 mg/kg,po observed after 24 hrs of administration by novel object recognition test; assay type: functional, organism-based
Mus musculus [20] = test: Antialzheimer activity against amyloid beta (25 to 35)-induced cognitive deficit ICR mouse model assessed as increase in preferential index at 25 mg/kg,po observed after 1 hr of administration by novel object recognition test; assay type: functional, organism-based
PC-12 [21] = test: Neuroprotective activity against amyloid beta (25 to 35)-induced rat PC12 cells assessed as decrease in TNF-alpha expression level at 7.5 to 30 uM preincubated for 30 mins followed by amyloid beta (25 to 35) addition and measured after 24 hrs by western blot assay; assay type: functional, cell-based; conditions: dose 7.5-30 µM, time 24.5 hrs
PC-12 [22] = test: Neuroprotective activity against amyloid beta (25 to 35)-induced rat PC12 cells assessed as decrease in NF-kappaB phosphorylation level at 7.5 to 30 uM preincubated for 30 mins followed by amyloid beta (25 to 35) addition and measured after 24 hrs by western blot assay; assay type: functional, cell-based; conditions: dose 7.5-30 µM, time 24.5 hrs
PC-12 [23] = test: Neuroprotective activity against amyloid beta (25 to 35)-induced rat PC12 cells assessed as decrease in tau hyperphosphorylation at Thr181 at 7.5 to 30 uM preincubated for 30 mins followed by amyloid beta (25 to 35) addition and measured after 24 hrs by western blot assay; assay type: functional, cell-based; conditions: dose 7.5-30 µM, time 24.5 hrs
Mus musculus [24] = test: Antialzheimer activity against amyloid beta (25 to 35)-induced brain injury ICR mouse model assessed as increase in NeuN expression level in hippocampal CA1 region at 50 mg/kg,po administrated for 21 days by immunohistochemistry analysis; assay type: functional, organism-based; conditions: time 21.0 day
HUVEC [25] = test: Cytotoxicity against human HUVEC cells assessed as decrease in cell viability at 120 uM incubated for 24 hrs by MTT assay; assay type: toxicity, cell-based
Mus musculus [26] = test: Antialzheimer activity against amyloid beta (25 to 35)-induced cognitive deficit ICR mouse model assessed as increase in preferential index at 50 mg/kg,po observed after 24 hrs of administration by novel object recognition test; assay type: functional, organism-based
[27] = Toxicity in ICR mouse assessed as pathological changes in spleen at 12.5 to 50 mg/kg,po administrated for 20 days by hematoxylin and eosin staining based microscopic analysis; assay type: organism-based; conditions: in vivo, 480 h, dose 12.5-50 mg/kg, time 20 day

Compound: CC1(C)CCC[C@](C)([C@H]2CC[C@]3(C)[C@@H]2[C@H](O)C[C@@H]2[C@@]4(C)CC[C@H](OC(=O)NCc5ccccc5)C(C)(C)[C@@H]4CC[C@]23C)O1
- Activity (Mus musculus [1]): Active
- Activity [2]: Non-Toxic
- Activity (Mus musculus [3]): Active
- Tmax [4]: 1.33 h
- Activity (Mus musculus [5]): Active
- Activity (N2a): Non-Toxic
- Activity (HepG2): Toxic
- Activity (Mus musculus [6]): Active
- Activity (PC-12 [7]): Active
- Activity (HUVEC [8]): Non-Toxic
- Activity (Mus musculus [9]): Active
- Activity [10]: Non-Toxic
- Activity (PC-12 [11]): Active
- Activity (PC-12 [12]): Active
- Activity (PC-12 [13]): Active
- MRT last [14]: 2.24 h
- Activity (PC-12 [15]): Active
- AUC(0-inf) [16]: 40700 ng·h/mL
- Activity (PC-12 [17]): Active
- Activity (PC-12 [18]): Active
- Activity (Mus musculus [19]): Active
- Activity (Mus musculus [20]): inactive
- Activity (PC-12 [21]): Active
- Activity (PC-12 [22]): Active
- Activity (PC-12 [23]): Active
- Activity (Mus musculus [24]): Active
- Activity (HUVEC [25]): Toxic
- Activity (Mus musculus [26]): Active
- Activity [27]: Non-Toxic
